# Several values for one entry are separate records, joined by “and”; a condition that tells them apart may be missing. Equal entries are not always repeated. Where two headings read alike, the source gives them in different places. Marks after values point to notes of the source that are not given here.
# Columns and labels:
# [1] = system: patients with advanced hematologic malignancies (cohort 1: AML/MDS; cohort 2: CLL/MCL); assay: Dose-limiting toxicity / MTD, Phase I 3 + 3 dose-escalation of once-daily oral talazoparib (NCT01399840); assay type: in vivo; conditions: for Maximum tolerated dose (MTD): oral once daily, 21-day cycles
# Description: This study was an open-label, two-cohort, Phase I, dose-escalation study of once-daily talazoparib monotherapy in patients with advanced hematologic malignancies (ClinicalTrials.gov Identifier: NCT01399840) conducted at seven sites in the US and the UK between July 2011 and November 2013. Enrollment and dose escalation were conducted independently in each cohort of the study. Talazoparib was administered orally, once a day for repeated 21-day cycles under fasting conditions. Each cohort consisted of two stages: dose escalation (stage 1) and dose expansion (stage 2). Dose escalation followed a standard 3 + 3 dose-escalation design, where the first patient in each group was observed from cycle 1 day 1 through cycle 1 day 8 before two to five additional patients were treated in that dose level. […] Planned talazoparib dose levels included 0.1, 0.2, 0.3, 0.45, 0.9, 1.35, and 2.0 mg/day.
# The primary objective of the study was to establish the MTD of daily oral talazoparib in molecularly unselected patients with AML or MDS (cohort 1) and in patients with CLL or MCL (cohort 2). The MTD was defined as the highest dose level at which no more than one of six patients experienced a DLT. A DLT was defined as any of the following treatment-related toxicities occurring during cycle 1: in cohort 1, hematologic adverse events (AEs) included bone marrow hypoplasia (≤10% cellularity) lasting ≥28 days. Non-hematologic toxicities included any Grade ≥3 AE except for the following: (1) a non-hematologic Grade 3 laboratory AE that is asymptomatic and rapidly reversible (returned to baseline or to Grade ≤1 within 3 days) unless identified as clinically relevant by the investigator; (2) Grade 3 nausea, vomiting, and/or diarrhea responsive to medications within 24 h; (3) Grade 3 tumor lysis syndrome; (4) Grade 3 stomatitis that resolves within 7 days; or (5) Grade 3 fatigue unless ≥2 grade increase from baseline lasting >3 days. Missing ≥4 doses of talazoparib during cycle 1 for treatment-related non-hematologic toxicity was also defined as a DLT. In cohort 2, hematologic AEs included Grade 4 thrombocytopenia persisting for >7 days and/or resulting in Grade ≥2 hemorrhage, or Grade 4 neutropenia lasting >7 days and/or associated with fever (hematologic AEs for patients with bone marrow effacement [i.e., platelet count ≤50 × 10^9/L and neutrophil count <1 × 10^9/L] included >50% decrease in platelet count persisting for >7 days or resulting in Grade ≥2 hemorrhage, or >50% decrease in neutrophil count and/or associated with fever or systemic infection). For non-hematologic AEs, the same criteria used for cohort 1 were used to define DLT.
# Patients experiencing a DLT during cycle 1 could resume talazoparib treatment at the same or reduced dose after recovery to baseline or Grade ≤1 within 21 days of treatment interruption. Patients not experiencing a DLT during cycle 1 could receive additional treatment until disease progression, treatment failure, or relapse. Patients with persisting non-hematologic Grade 1/2 toxicity were dose reduced ∼25%. Dosing was stopped for patients with a Grade 3/4 non-hematologic toxicity and resumed with a 25%–50% dose reduction if toxicity resolved to Grade 0/1 after >7 days, or returned to baseline. Patients with non-hematologic Grade 3 toxicity that resolved to Grade 0/1 in <7 days could resume with ∼25% reduction.
# For determination of the MTD, only the treated evaluable patients were included. No formal sample size calculations based on statistical power were performed. Descriptive statistics were used to characterize all outcomes.
# [2] = system: patients with advanced hematologic malignancies (cohort 1: AML/MDS; cohort 2: CLL/MCL); assay type: in vivo, human
# Text: AEs were coded in accordance with The Medical Dictionary for Regulatory Activities, version 16.1. Treatment-emergent AEs (TEAEs) were defined as AEs that were new, increased in frequency, or worsened in severity, after the first talazoparib dose. AEs counted as drug-related had been classified by investigators as possibly or probably related to talazoparib.
# All analyses in this open-label, dose-finding study were descriptive in nature. Descriptive summaries of continuous variables, including the mean, standard deviation (SD), median, range, and, where appropriate, 95% CI and/or interquartile range, were determined using the Statistical Analysis Software (SAS), version 9.2. Descriptive summaries of categorical variables included the number of patients and percentages. Data were summarized with respect to the dose level at which the patients started treatment. Cohorts were defined as all patients who began treatment at a given dose level.
smiles,measurement,setting,value
Cn1ncnc1[C@H]1c2n[nH]c(=O)c3cc(F)cc(c23)N[C@@H]1c1ccc(F)cc1 [talazoparib],Maximum tolerated dose (MTD),[1]; Cohort 1 (AML/MDS),< 2.0 mg/day and 1.35 mg/day
same,DLT AE: Neutropenic sepsis,"[1]; Cohort 1, 0.10 mg/day (n = 3)",0 (0.0) n (%)
same,DLT AE: Neutropenic sepsis,"[1]; Cohort 1, 0.20 mg/day (n = 3)",0 (0.0) n (%)
same,DLT AE: Neutropenic sepsis,"[1]; Cohort 1, 0.30 mg/day (n = 5)",0 (0.0) n (%)
same,DLT AE: Neutropenic sepsis,"[1]; Cohort 1, 0.45 mg/day (n = 3)",0 (0.0) n (%)
same,DLT AE: Neutropenic sepsis,"[1]; Cohort 1, 0.90 mg/day (n = 4)",0 (0.0) n (%)
same,DLT AE: Neutropenic sepsis,"[1]; Cohort 1, 1.35 mg/day (n = 3)",0 (0.0) n (%)
same,DLT AE: Neutropenic sepsis,"[1]; Cohort 1, 2.00 mg/day (n = 4)",1 (25.0)^† n (%)
same,DLT AE: Neutropenic sepsis,"[1]; Cohort 1, All (n = 25)",1 (4.0) n (%)
same,Maximum tolerated dose (MTD),[1]; Cohort 2 (CLL/MCL),< 0.9 mg/day and ~0.9 mg/day
same,DLT AE: Neutropenic sepsis,"[1]; Cohort 2, 0.10 mg/day (n = 3)",0 (0.0) n (%)
same,DLT AE: Neutropenic sepsis,"[1]; Cohort 2, 0.90 mg/day (n = 5)",0 (0.0) n (%)
same,DLT AE: Neutropenic sepsis,"[1]; Cohort 2, All (n = 8)",0 (0.0) n (%)
same,MTD in patients with hematologic malignancies (approximate range),"[1]; monotherapy, once daily, both cohorts",~1 mg
same,Any AEs of CTCAE Grade of 5 (death),"[2]; Cohort 1, 0.10 mg/day (n = 3)",0 (0.0) n (%)
same,Any study drug-related AEs of CTCAE Grade 5 (death),"[2]; Cohort 1, 0.10 mg/day (n = 3)",0 (0.0) n (%)
same,Any AEs of CTCAE Grade of 5 (death),"[2]; Cohort 1, 0.20 mg/day (n = 3)",2 (66.7) n (%)
same,Any study drug-related AEs of CTCAE Grade 5 (death),"[2]; Cohort 1, 0.20 mg/day (n = 3)",0 (0.0) n (%)
same,Any AEs of CTCAE Grade of 5 (death),"[2]; Cohort 1, 0.30 mg/day (n = 5)",1 (20.0) n (%)
same,Any study drug-related AEs of CTCAE Grade 5 (death),"[2]; Cohort 1, 0.30 mg/day (n = 5)",0 (0.0) n (%)
same,Any AEs of CTCAE Grade of 5 (death),"[2]; Cohort 1, 0.45 mg/day (n = 3)",2 (66.7) n (%)
same,Any study drug-related AEs of CTCAE Grade 5 (death),"[2]; Cohort 1, 0.45 mg/day (n = 3)",0 (0.0) n (%)
same,Any AEs of CTCAE Grade of 5 (death),"[2]; Cohort 1, 0.90 mg/day (n = 4)",3 (75.0) n (%)
same,Any study drug-related AEs of CTCAE Grade 5 (death),"[2]; Cohort 1, 0.90 mg/day (n = 4)",0 (0.0) n (%)
same,Any AEs,"[2]; Cohort 1, 1.35 mg/day (n = 3)",3 (100) n (%)
same,Any AEs leading to dose interruption or modification,"[2]; Cohort 1, 1.35 mg/day (n = 3)",0 (0.0) n (%)
same,Any AEs leading to study drug withdrawn,"[2]; Cohort 1, 1.35 mg/day (n = 3)",0 (0.0) n (%)
same,Any AEs of CTCAE Grade 3 or 4,"[2]; Cohort 1, 1.35 mg/day (n = 3)",3 (100) n (%)
same,Any AEs of CTCAE Grade of 5 (death),"[2]; Cohort 1, 1.35 mg/day (n = 3)",1 (33.3) n (%)
same,Any SAEs,"[2]; Cohort 1, 1.35 mg/day (n = 3)",2 (66.7) n (%)
same,Any SAEs of CTCAE Grade of 3 or 4,"[2]; Cohort 1, 1.35 mg/day (n = 3)",2 (66.7) n (%)
same,Any study drug-related AEs,"[2]; Cohort 1, 1.35 mg/day (n = 3)",3 (100) n (%)
same,Any study drug-related AEs leading to dose interruption or modification,"[2]; Cohort 1, 1.35 mg/day (n = 3)",0 (0.0) n (%)
same,Any study drug-related AEs leading to study drug withdrawal,"[2]; Cohort 1, 1.35 mg/day (n = 3)",0 (0.0) n (%)
same,Any study drug-related AEs of CTCAE Grade 5 (death),"[2]; Cohort 1, 1.35 mg/day (n = 3)",0 (0.0) n (%)
same,Any study drug-related AEs of CTCAE Grade of 3 or 4,"[2]; Cohort 1, 1.35 mg/day (n = 3)",2 (66.7) n (%)
same,Any study drug-related SAEs,"[2]; Cohort 1, 1.35 mg/day (n = 3)",0 (0.0) n (%)
same,Any AEs of CTCAE Grade of 5 (death),"[2]; Cohort 1, 2.00 mg/day (n = 4)",3 (75.0) n (%)
same,Any study drug-related AEs of CTCAE Grade 5 (death),"[2]; Cohort 1, 2.00 mg/day (n = 4)",1 (25.0)^§ n (%)
same,Any AEs of CTCAE Grade of 5 (death),"[2]; Cohort 1, All (n = 25)",12 (48.0) n (%)
same,Any study drug-related AEs of CTCAE Grade 5 (death),"[2]; Cohort 1, All (n = 25)",1 (4.0)^§ n (%)
same,Any AEs of CTCAE Grade of 5 (death),"[2]; Cohort 2, 0.10 mg/day (n = 3)",1 (33.3) n (%)

# Reference: PMC8609999, “A Phase I trial of talazoparib in patients with advanced hematologic malignancies” (International Journal of Hematologic Oncology, 2021)
